biological target: T1, EV-D68 2A^pro (Enterovirus D68, UniProt A0A097BW19); assay: FRET-based enzymatic assay; assay type: biochemical; conditions: not given

Compound | enzymatic inhibition, comparison in words
CCC[C@H](NC(=O)[C@@H]1[C@H]2CCC[C@H]2CN1C(=O)[C@@H](NC(=O)NC12CC3CC(CC(C3)C1)C2)C(C)(C)C)C(=O)C(=O)NC1CC1 [Jun1023, (1S)-2-((S)-2-(3-((3R,5R,7R)-adamantan-1-yl)ureido)-3,3-dimethylbutanoyl)-N-((S)-1-(cyclopropylamino)-1,2-dioxohexan-3-yl)octahydrocyclopenta[c]pyrrole-1-carboxamide] | reduced enzymatic inhibition
CCC[C@H](NC(=O)[C@@H]1[C@H]2CCC[C@H]2CN1C(=O)[C@@H](NC(=O)OCc1ccccc1)C(C)(C)C)C(=O)C(=O)NC1CC1 [Jun7426, Benzyl ((S)-1-((1S,3aR,6aS)-1-(((S)-1-(cyclopropylamino)-1,2-dioxohexan-3-yl)carbamoyl)hexahydrocyclopenta[c]pyrrol-2(1H)-yl)-3,3-dimethyl-1-oxobutan-2-yl)carbamate] | reduced enzymatic inhibition and antiviral activity compared to telaprevir
CCC[C@H](NC(=O)[C@@H]1[C@H]2CCC[C@H]2CN1C(=O)[C@@H](NC(=O)Cc1ccccc1)C(C)(C)C)C(=O)C(=O)NC1CC1 [Jun8681, (1S,3aR,6aS)-N-((S)-1-(cyclopropylamino)-1,2-dioxohexan-3-yl)-2-((S)-3,3-dimethyl-2-(2-phenylacetamido)butanoyl)octahydrocyclopenta[c]pyrrole-1-carboxamide] | reduced enzymatic inhibition and antiviral activity compared to telaprevir
CCC[C@H](NC(=O)[C@@H]1[C@H]2CCC[C@H]2CN1C(=O)[C@@H](NC(=O)/C=C/c1ccccc1)C(C)(C)C)C(=O)C(=O)NC1CC1 [Jun8813, (1S,3aR,6aS)-2-((S)-2-cinnamamido-3,3-dimethylbutanoyl)-N-((S)-1-(cyclopropylamino)-1,2-dioxohexan-3-yl)octahydrocyclopenta[c]pyrrole-1-carboxamide] | reduced enzymatic inhibition and antiviral activity compared to telaprevir
CC(C)[C@H](NC(=O)[C@@H]1[C@H]2CCC[C@H]2CN1C(=O)[C@@H](NC(=O)CC12CC3CC(CC(C3)C1)C2)C(C)(C)C)C(=O)C(=O)NC1CC1 [Jun11718, (1S,3aR,6aS)-2-((S)-2-(2-((3S,5S,7S)-adamantan-1-yl)acetamido)-3,3-dimethylbutanoyl)-N-((S)-1-(cyclopropylamino)-4-methyl-1,2-dioxopentan-3-yl)octahydrocyclopenta[c]pyrrole-1-carboxamide] | comparable enzymatic inhibition and antiviral activity as Jun8861
CC(C)(C)[C@H](NC(=O)CC12CC3CC(CC(C3)C1)C2)C(=O)N1C[C@@H]2CCC[C@@H]2[C@H]1C(=O)N[C@@H](Cc1ccc(F)cc1)C(=O)C(=O)NC1CC1 [Jun11763, (1S,3aR,6aS)-2-((S)-2-(2-((3S,5S,7S)-adamantan-1-yl)acetamido)-3,3-dimethylbutanoyl)-N-((S)-4-(cyclopropylamino)-1-(4-fluorophenyl)-3,4-dioxobutan-2-yl)octahydrocyclo-penta[c]pyrrole-1-carboxamide] | comparable enzymatic inhibition and antiviral activity as Jun11385
CC(C)(C)[C@H](NC(=O)CC12CC3CC(CC(C3)C1)C2)C(=O)N1C[C@@H]2CCC[C@@H]2[C@H]1C(=O)NC1(C(=O)C(=O)NC2CC2)CCCCC1 [Jun11805, (1S,3aR,6aS)-2-((S)-2-(2-((3S,5S,7S)-adamantan-1-yl)acetamido)-3,3-dimethylbutanoyl)-N-(1-(2-(cyclopropylamino)-2-oxoacetyl)cyclohexyl)octahydrocyclopenta[c]pyrrole-1-carboxamide] | less active compared to Jun11762
CC(C)(C)[C@H](NC(=O)CC12CC3CC(CC(C3)C1)C2)C(=O)N1C[C@@H]2CCC[C@@H]2[C@H]1C(=O)NC1(C(=O)C(=O)NC2CC2)CCC1 [Jun11806, (1S,3aR,6aS)-2-((S)-2-(2-((3S,5S,7S)-adamantan-1-yl)acetamido)-3,3-dimethylbutanoyl)-N-(1-(2-(cyclopropylamino)-2 oxoacetyl)cyclobutyl)octahydrocyclopenta[c]pyrrole-1-carboxamide] | less active compared to Jun11762
CC(C)(C)[C@H](NC(=O)CC12CC3CC(CC(C3)C1)C2)C(=O)N1C[C@@H]2CCC[C@@H]2[C@H]1C(=O)N[C@H](C(=O)C(=O)NC1CC1)C1CCCC1 [Jun11808, (1S,3aR,6aS)-2-((S)-2-(2-((3S,5S,7S)-adamantan-1-yl)acetamido)-3,3-dimethylbutanoyl)-N-((S)-1-cyclopentyl-3-(cyclopropylamino)-2,3-dioxopropyl)octahydrocyclopenta[c]pyrrole-1-carboxamide] | comparable enzymatic inhibition and antiviral activity as Jun8861
CC(C)(C)[C@H](NC(=O)CC12CC3CC(CC(C3)C1)C2)C(=O)N1C[C@@H]2CCC[C@@H]2[C@H]1C(=O)N[C@H](C(=O)C(=O)NC1CC1)c1ccccc1 [Jun11817, (1S,3aR,6aS)-2-((S)-2-(2-((3S,5S,7S)-adamantan-1-yl)acetamido)-3,3-dimethylbutanoyl)-N-((S)-3-(cyclopropylamino)-2,3-dioxo-1-phenylpropyl)octahydrocyclopenta[c]pyrrole-1-carboxamide] | less active
CC(C)(C)[C@H](NC(=O)CC12CC3CC(CC(C3)C1)C2)C(=O)N1C[C@@H]2CCC[C@@H]2[C@H]1C(=O)N[C@H](C(=O)C(=O)NC1CC1)c1ccc(F)cc1 [Jun11861, (1S,3aR,6aS)-2-((S)-2-(2-((3S,5S,7S)-adamantan-1-yl)acetamido)-3,3-dimethylbutanoyl)-N-((S)-3-(cyclopropylamino)-1-(4-fluorophenyl)-2,3-dioxopropyl)octahydrocyclopenta[c]pyrrole-1-carboxamide] | less active
CC(C)(C)[C@H](NC(=O)CC12CC3CC(CC(C3)C1)C2)C(=O)N1C[C@@H]2CCC[C@@H]2[C@H]1C(=O)N[C@@H](Cc1c[nH]c2ccccc12)C(=O)C(=O)NC1CC1 [Jun11862, (1S,3aR,6aS)-2-((S)-2-(2-((3S,5S,7S)-adamantan-1-yl)acetamido)-3,3-dimethylbutanoyl)-N-((S)-4-(cyclopropylamino)-1-(1H-indol-3-yl)-3,4-dioxobutan-2-yl)octahydrocyclopenta[c]pyrrole-1-carboxamide] | comparable enzymatic inhibition and antiviral activity as Jun11385

tested on: EV-D68 US/MO/14-18947; assay: CPE assay with EV-D68 US/MO/14-18947 in R.D. cells; assay type: cell-based, Enterovirus D68; conditions: Enterovirus D, EVD68, RD, read-out: Antiviral EC50

EC50 | Compound
160 to 750 nM | CCC[C@H](NC(=O)[C@@H]1[C@H]2CCC[C@H]2CN1C(=O)[C@@H](NC(=O)CC1CCCC1)C(C)(C)C)C(=O)C(=O)NC1CC1 [Jun971, (1S,3aR,6aS)-2-((S)-2-(2-cyclopentylacetamido)-3,3-dimethylbutanoyl)-N-((S)-1-(cyclopropylamino)-1,2-dioxohexan-3-yl)octahydrocyclopenta[c]pyrrole-1-carboxamide]

biological target: T1, EV-D68 2A^pro; assay: Enzyme kinetic studies; assay type: biochemical; conditions: from fitting of kinetic curves

Mode of inhibition of EV-D68 2A^pro | Compound
reversible binding | CC(C)(C)[C@H](NC(=O)CC12CC3CC(CC(C3)C1)C2)C(=O)N1C[C@@H]2CCC[C@@H]2[C@H]1C(=O)N[C@H](C=O)Cc1ccc(F)cc1 [Jun11707, (1S,3aR,6aS)-2-((S)-2-(2-((3S,5S,7S)-adamantan-1-yl)acetamido)-3,3-dimethylbutanoyl)-N-((S)-1-(4-fluorophenyl)-3-oxopropan-2-yl)octahydrocyclopenta[c]pyrrole-1-carboxamide]
reversible binding | CC(C)(C)[C@H](NC(=O)CC12CC3CC(CC(C3)C1)C2)C(=O)N1C[C@@H]2CCC[C@@H]2[C@H]1C(=O)N[C@H](C(=O)C(=O)NC1CC1)C1CCCC1 [Jun11808, (1S,3aR,6aS)-2-((S)-2-(2-((3S,5S,7S)-adamantan-1-yl)acetamido)-3,3-dimethylbutanoyl)-N-((S)-1-cyclopentyl-3-(cyclopropylamino)-2,3-dioxopropyl)octahydrocyclopenta[c]pyrrole-1-carboxamide]

— publication PMC11457037 (Journal of medicinal chemistry, 2023)
